The text below walks through data of patent US4156777A, “Process for producing glucopyranose-nitrosourea compounds and novel compounds included therein” (Tokyo Tanabe Company, Limited, priority 1977, dated 1979).

≈ marks a conversion by molar mass, not a printed value. Like-named read-outs stand apart in the source and are kept apart here.

Series [1] is described as follows: Absorption and excretion of 14C-labelled compounds. Format: in vivo, rats. The settings on record: for dose excreted in expiration: within 24 hours. On the procedure: The carbon atom at the 2-position of the chloroethyl group (i.e. ClCH2 CH2 -) of 6DCNU and 6MCαG was labelled with radioactive ^14 C, and the absorption and excretion of these compounds were tested using rats.

Series [2] in a line: Effect on respiration, blood pressure, heart rate and electrocardiogram. Format: in vivo, Beagle dogs. The note with it: dog, in vivo, iv; injected into brachial veins, anesthetized Beagle dogs; read-out: maximum dosage not effected on respiration, blood pressure, heart rate and electrocardiogram. On the procedure: Beagle dogs of both sexes weighing about 10 kg were anesthetized with pentobarbital sodium (30 mg/kg, i.v.), and immobilized in the supine position. Test compounds dissolved in physiological saline solution were injected into the brachial veins of the animals and the arteries at cannulated positions were treated with heparin sodium as anticoagulant.
The respiration rate of each animal was estimated with a respirometer (Nihonkohden, RP-3) through a tracheal cannula, the blood pressure with an electro-haemodynamometer (Nihonkohden, MP-4T) attached surgically to the femoral artery, and the heart rate with a pulse-rate tachometer (Nihonkohden, RT-2) through the trigger pulse of the blood pressure.

The nature of series [3]: Solubility in water at 25° C. The settings on record: amount soluble in 1 ml water at 25° C. Format: physicochemical.
Series [4] in a line: Diabetogenic activity (blood glucose concentration after intravenous administration). Format: in vivo, male Wister rats. The procedure: 40-96 mg/kg of the test compounds were administered intravenously to starved male Wister rats weighing 240-260 g each, and the blood glucose concentrations of the test animals were estimated by the glucose exidase method [L. L. Saloman et al: Anal. Chem., 31 (1959), 453], in which test the compounds were dissolved in physiological saline solution just before administration. […]

Series [5] deals with leukemia L-1210. In words: Antitumor activity against leukemia L-1210 implanted in BDF1 mice (ILS, 60 days survivors). It is filed as in vivo. The source says:
Test compounds were given to BDF1 mice 24 hrs after implantation of 10^6 cells of leukemia L-1210 in each animal, through single intraperitoneal administration, intraperitoneal administration for 5 successive days, single oral administration or oral administration for 5 successive days, whereupon the increase in life span (referred to as "ILS") and number of 60 days survivors of test animals were estimated, said test of antitumor activity being that according to the method of the National Cancer Center, Tokyo [A. Hoshi et al: Farmashia, 9 (1973), 464]. In the tests, the compounds were dissolved in physiological saline solution just before administration.
^a i.p.: intraperitoneal administration p.o: oral administration
D1 : single administration D1~5 : administration for 5
^b percentage calculated from mean survival time over control
^c survivors/six animals

A short description of series [6]: Acute toxicity (LD50). It is filed as in vivo, male Wister rats. The note with it: rat, in vivo, after 1 week. On the procedure: Test compounds were dissolved in physiological saline solution just before their dosage and administered to male Wister rats, intraperitoneally, intravenously and orally. After 1 week, the LD50 of each compound was calculated from the mortality of the test animals by the Lichfield-Wilcoxon Method.
i.v.: intravenous administration

For series [7] the following is noted: cited from earlier work.
Setting [8] is: 40 mg/kg i.v., 0 hr after treatment.
Where [9] appears, read: 40 mg/kg i.v., 2 hr after treatment.
The mark [10] stands for this setting: 40 mg/kg i.v., 4 hr after treatment.
The mark [11] stands for this setting: 40 mg/kg i.v., 7 hr after treatment.
Setting [12] is: 40 mg/kg i.v., 10 hr after treatment.
The mark [13] stands for this setting: 40 mg/kg i.v., 24 hr after treatment.
Setting [14] is: 40 mg/kg i.v., 48 hr after treatment.
[15] abbreviates: 60 mg/kg i.v., 0 hr after treatment.
Setting [16] is: 60 mg/kg i.v., 2 hr after treatment.
Where [17] appears, read: 60 mg/kg i.v., 4 hr after treatment.
Where [18] appears, read: 60 mg/kg i.v., 7 hr after treatment.
Setting [19] is: 60 mg/kg i.v., 10 hr after treatment.
[20] abbreviates: 60 mg/kg i.v., 24 hr after treatment.
[21] abbreviates: 60 mg/kg i.v., 48 hr after treatment.
Where [22] appears, read: known compounds, generally seen.

For the compound `O=NN(C[14CH2]Cl)C(=O)NC[C@H]1OC(O)[C@H](O)[C@@H](O)[C@@H]1O` (stereo partly drawn) [6DCNU-^14 C], the “dose excreted in urine” value was 65-70% in series [1] (within 12 hours after the dose) and 75-80% in series [1] (within 72 hours after the dose). Also, in series [1], the “dose excreted in expiration” value is 3-5%. Also, the “dose excreted in faeces” value in series [1] (within 72 hours) is on record as 10-15%.
With `CO[C@H]1O[C@H](CNC(=O)N(C[14CH2]Cl)N=O)[C@@H](O)[C@H](O)[C@H]1O` [6MCαG-^14 C], the “dose excreted in urine” value was 50-60% in series [1] (within 12 hours after the dose) and 80-90% in series [1] (within 96 hours after the dose). Moreover, the “dose excreted in expiration” value in series [1] is 3-4%. Besides, the “dose excreted in faeces” value in series [1] (within 96 hours) is 5-6%.
Usually solubility stands for the dissolved amount per volume that the medium holds. Usually LD50 stands for the dose expected to kill half of the subjects tested. Turning to `O=NN(CCCl)C(=O)N[C@H]1C(O)O[C@H](CO)[C@@H](O)[C@@H]1O` (stereo partly drawn) [DCNU, 1-(2-chloroethyl)-3-(D-glucopyranos-2-yl)-1-nitrosourea], the NOAEL in series [2] was determined as 20 mg/kg. The same compound registered a solubility in series [3] of 40 mg/mL (≈ 128 mM). Besides, the “Blood Glucose Concentration” value in series [4] (setting [8]) came to 67.5 mg/dL; in series [4] (setting [9]), 87.2 mg/dL; in series [4] (setting [10]), 74.6 mg/dL; in series [4] (setting [11]) it was 85.3 mg/dL; in series [4] (setting [12]), 110.2 mg/dL; in series [4] (setting [13]), 142.2 mg/dL. The “Blood Glucose Concentration” value in series [4] (setting [14]) turned out to be 229.4 mg/dL; in series [4] (setting [15]), 68.2 mg/dL; in series [4] (setting [16]) it was 88.4 mg/dL; in series [4] (setting [17]) it was 72.4 mg/dL; in series [4] (setting [18]) it was 92.1 mg/dL; in series [4] (setting [19]), 115.7 mg/dL. The “Blood Glucose Concentration” value was 162.6 mg/dL in series [4] (setting [20]); 242.3 mg/dL in series [4] (setting [21]); 70.5 mg/dL in series [4] (80 mg/kg i.v., 0 hr after treatment); 90.3 mg/dL in series [4] (80 mg/kg i.v., 2 hr after treatment); 68.6 mg/dL in series [4] (80 mg/kg i.v., 4 hr after treatment); 93.7 mg/dL in series [4] (80 mg/kg i.v., 7 hr after treatment). For the same compound, the “Blood Glucose Concentration” value in series [4] (80 mg/kg i.v., 10 hr after treatment) came to 123.5 mg/dL; in series [4] (80 mg/kg i.v., 24 hr after treatment), 178.7 mg/dL; in series [4] (80 mg/kg i.v., 48 hr after treatment), 264.8 mg/dL. Further, the ILS in series [5] (1.6 mg/kg/day, i.p. D1~5) is reported as > 143%; in series [5] (1.6 mg/kg/day, p.o. D1~5), -10%; in series [5] (3.2 mg/kg/day, i.p. D1~5), > 407%; in series [5] (3.2 mg/kg/day, p.o. D1~5), 6%; in series [5] (4.5 mg/kg/day, i.p. D1~5), > 406%; in series [5] (6.3 mg/kg/day, i.p. D1), > 265%. Further, the ILS in series [5] (6.3 mg/kg/day, i.p. D1~5) is recorded as > 622%; in series [5] (6.3 mg/kg/day, p.o. D1~5), 13%; in series [5] (9.0 mg/kg/day, i.p. D1~5) it was > 153%; in series [5] (12.5 mg/kg/day, i.p. D1) it was > 418%; in series [5] (12.5 mg/kg/day, p.o. D1~5), 13%; in series [5] (25.0 mg/kg/day, i.p. D1), > 315%. In addition, the ILS is reported as 13% in series [5] (25.0 mg/kg/day, p.o. D1~5); -10% in series [5] (50.0 mg/kg/day, i.p. D1); 15% in series [5] (50.0 mg/kg/day, p.o. D1~5); 18% in series [5] (100.0 mg/kg/day, p.o. D1~5); -23% in series [5] (200.0 mg/kg/day, p.o. D1~5). The “Survivors (60 days)” value in series [5] (1.6 mg/kg/day, i.p. D1~5) is given as 1/6; in series [5] (3.2 mg/kg/day, i.p. D1~5) it was 3/6; in series [5] (4.5 mg/kg/day, i.p. D1~5) it was 3/6; in series [5] (6.3 mg/kg/day, i.p. D1), 3/6; in series [5] (6.3 mg/kg/day, i.p. D1~5), 5/6; in series [5] (9.0 mg/kg/day, i.p. D1~5), 1/6. Moreover, the “Survivors (60 days)” value in series [5] (12.5 mg/kg/day, i.p. D1) was 4/6; in series [5] (25.0 mg/kg/day, i.p. D1) it was 3/6. In series [5] (oral administration), the “antitumor activity in oral administration, in words” value is recorded as “no antitumor activity in oral administration”. The 50% lethal dose (LD50) at 168 h in series [6] (ip) was found to be 44 mg/kg; in series [6] (po), 1150 mg/kg. Also, in series [7] (setting [22]), the “diabetogenic activity, decreasing order” value is on record as “SZ>DCNU>GANU> 2MCαG≈6MCαG”.
With `O=NN(CCCl)C(=O)N[C@@H]1O[C@H](CO)[C@@H](O)[C@H](O)[C@H]1O` [GANU, 1-(2-chloroethyl)-3-(β-D-glucopyranosyl)-1-nitrosourea], in series [2], the NOAEL amounted to 10 mg/kg. Further, the “Blood Glucose Concentration” value in series [4] (setting [8]) turned out to be 67.8 mg/dL; in series [4] (setting [9]), 70.4 mg/dL; in series [4] (setting [10]) it was 71.3 mg/dL; in series [4] (setting [11]), 94.4 mg/dL; in series [4] (setting [12]) it was 98.2 mg/dL; in series [4] (setting [13]), 120.3 mg/dL. Also, the “Blood Glucose Concentration” value in series [4] (setting [14]) turned out to be 186.5 mg/dL; in series [4] (setting [15]), 67.3 mg/dL; in series [4] (setting [16]), 71.2 mg/dL; in series [4] (setting [17]), 72.6 mg/dL; in series [4] (setting [18]) it was 95.4 mg/dL; in series [4] (setting [19]) it was 105.9 mg/dL. The “Blood Glucose Concentration” value in series [4] (setting [20]) is 125.5 mg/dL; in series [4] (setting [21]), 189.8 mg/dL. For the same compound, the ILS in series [5] (1.0 mg/kg/day, i.p. D1) is reported as 42%; in series [5] (5.0 mg/kg/day, i.p. D1), > 280%; in series [5] (5.0 mg/kg/day, p.o. D1) it was 5%; in series [5] (10.0 mg/kg/day, i.p. D1) it was > 295%; in series [5] (10.0 mg/kg/day, p.o. D1) it was 45%; in series [5] (15.0 mg/kg/day, i.p. D1), > 507%. Besides, the ILS in series [5] (20.0 mg/kg/day, i.p. D1) is reported as > 518%; in series [5] (20.0 mg/kg/day, p.o. D1), 75%; in series [5] (25.0 mg/kg/day, i.p. D1), > 472%; in series [5] (25.0 mg/kg/day, p.o. D1) it was 110%; in series [5] (35.0 mg/kg/day, p.o. D1), 70%. The “Survivors (60 days)” value in series [5] (5.0 mg/kg/day, i.p. D1) was 2/6; in series [5] (10.0 mg/kg/day, i.p. D1) it was 2/6; in series [5] (15.0 mg/kg/day, i.p. D1), 5/6; in series [5] (20.0 mg/kg/day, i.p. D1) it was 5/6; in series [5] (25.0 mg/kg/day, i.p. D1), 5/6. Moreover, the LD50 at 168 h is 24 mg/kg in series [6] (ip), 10 mg/kg in series [6] (iv) and 21 mg/kg in series [6] (po). The “diabetogenic activity, decreasing order” value in series [7] (setting [22]) is “SZ>DCNU>GANU> 2MCαG≈6MCαG”.
Turning to `CN(N=O)C(=O)N[C@H]1C(O)O[C@H](CO)[C@@H](O)[C@@H]1O` (stereo partly drawn) [SZ, 3-(d-glucopyranos-2-yl)-1-methyl-1-nitrosourea], in series [7] (rat, in vivo), the “diabetogenic activity, decreasing order” value is given as “SZ>DCNU>GANU> 2MCαG≈6MCαG”.
